Columns and labels:
rabbit cornea [1] = test: Stress-strain measurements of in-vivo treated corneas
Experimental: (§1) Twelve to twenty five weeks old rabbits (2.5-3 Kg weight) were used. They were anesthetized by intramuscular (i.m.) injection of 35 mg/kg ketamine (Rhone Merieux, Lyon, France) and 5 mg/kg xylazine (Vitamed, Binyamina, Israel). Usually, 16 rabbits were assigned for bacteriochlorophyll treatment. After de-epithelialization, one eye of each rabbit was treated topically with a test compound in saline for 10, 20 and 30 minutes using an eye cap (12 mm in diameter), followed by NIR illumination for 10, 20 or 30 minutes (755 nm, 10 mW/cm^2). The other eye served as untreated control. To prevent exposure of the limbal stem cells, the illuminated area was restricted by an aluminum foil mask with an 8 mm diameter central opening. To determine the role of dextran, 12 rabbits were divided into 4 treatment groups of 3 rabbits each: group 1, the Bchl-S group, was treated with a saline solution of a bacteriochlorophyll derivative; group 2, the Bchl-D group, treated with a bacteriochlorophyll-dextran solution. Both groups were incubated with the test compound for 20-min, followed by NIR illumination (755 nm, 10 mW/cm^2) for 30 minutes. Group 3, the RF group, was treated with riboflavin without dextran, and group 4, the RF-D group was treated with RF-dextran solution (RF-D). Both groups were incubated with RF or RF-D solutions for 30-minute, followed by UVA illumination (370 nm, 3 mW/cm^2) for 30 minutes. An ophthalmic ointment containing dexamethasone 0.1%, neomycin and polymixin B (Maxitrol®, Alcon, Belgium) was applied on the treated eyes once daily for two weeks. Four weeks after the treatment the rabbits were sacrificed, and the corneoscleral rings were removed and placed on paraffin hemisphere buttons of matching shape to assure accurate sectioning without stretching the tissue. Corneal strips, 4±0.2 mm in width, were cut from the epithelial side, as described above in the ex-vivo section. The corneal strips were transferred to the biomechanical tester without delay.
The corneal and scleral strips were clamped horizontally, at a distance of 6 mm, between the jaws of a microcomputer-controlled biomaterial tester (Minimat, Germany) with a 200 Newton force cell (FIG. 1). Controlled tightening of screws was performed with a calibrated screwdriver at a preset torque of 9 cN.m (Torqueleader, England). The strain was increased linearly at a rate of 1.0 mm/min and was measured up to tissue rupture. Young's modulus was calculated by the testing machine. Ultimate stress and Young's modulus were expressed in Mega Pascal (MPa) units.
Corneas of 16 live rabbits were pretreated for 10 (n=4), 20 (n=6) and 30 (n=6) minutes with WST11-S (2.5 mg/ml). NIR illumination (755 nm, 10 mW/cm^2) was then delivered for 30 minutes. […] Results are shown in FIGS. 9A-9B, and in Tables 1 and 2.
(§2) To determine the role of dextran, the photochemical treatment with a formulation of WST11 2.5 mg/ml containing 20% dextran T-500 (WST11-D) was examined. Six rabbits were examined: 3 rabbits were pretreated for 20 min with WST11-S solution and 3 with WST11-D solution, followed by NIR illumination for 30 minutes. Additional 4 rabbits were treated with RF (n=2) or RF-D (n=2) for 30 minutes, followed by 30-min UVA irradiation (370 nm, 3 mW/cm^2).

rabbit cornea [2] = test: Clinical course after in vivo cornea treatment (edema, epithelial healing, haze); conditions: for epithelial haze / time to healing of corneal epithelial defect: dipotassium salt
Experimental: as §1, §2

[3] = test system: de-epithelialized rabbit cornea; test: Photobleaching of photosensitizer in ex-vivo treated corneas; conditions: 20 min pretreatment
Experimental: Corneas of eyes from euthanized rabbits were de-epithelialized. Usually, 5 rabbits were tested, and 8 of the 10 eyes were pretreated for 20 minutes with a bacteriochlorophyll derivative in saline (Bchl-S), using an eye cap. The solution excess was carefully tipped off with filter paper. The eyes were irradiated for the specified time duration: 0, 10, 30, and 60 min (two corneas per time frame). Additional two eyes were used as control. The corneas were removed, and the central buttons of 8-mm diameter were punched out with a round trephine. Absorption spectra were recorded using V-570 spectrophotometer (Jasco, Japan).
It was previously described by the present inventors that generation of oxygen radicals upon illumination of certain bacteriochlorophyll derivatives such as WST11 in the absence of serum albumin is accompanied by bleaching of the NIR transition and absorption increase at ˜645 nm due to the photochemical generation of a chlorophyll-like molecules (Ashur et al. 2009). Such changes are therefore important markers for the photochemical activity of such bacteriochlorophyll derivatives in situ. […] Results obtained for 10 corneas of 5 euthanized rabbits treated with WST11 in saline are presented herein.
Eight de-epithelialized eyes were retreated with WST11-S for 20 min using an eye cap, and the remaining 2 eyes served as control. […] In parallel, the absorption increased at 645 nm (upward arrow), typical to the corresponding chlorin derivative formation by the photochemical interaction of WST11 with molecular oxygen (Ashur et al., 2009)

[4] = test system: de-epithelialized rabbit cornea; test: Overall accumulation of photosensitizer by the rabbit cornea (optical absorption at 755 nm); assay type: in vitro ADME; conditions: exposure to saline solution for 10, 20 and 30 min; increased with time
Experimental: Eyes of rabbits were de-epithelialised mechanically immediately post mortem. For most studies, 6 rabbits were used, wherein 6 eyes of 6 rabbits were exposed to the bacteriochlorophyll test compound for 10, 20 and 30 minutes (2 eyes for each test) using an eye cap, while the contralateral eyes were left untreated and served as controls. The corneas were removed and the central buttons of 8-mm diameter were punched out with a round trephine and placed onto the outer side of a polymethylmethacrylate cuvette in the area of light beam passage. Absorption spectra were recorded, and optical density (OD) at 600-900 nm (in most cases at 755 nm) was measured using V-570 spectrophotometer (Jam), Japan).
Six eyes of 3 euthanized rabbits were de-epithelialized mechanically immediately post mortem. Five of these eyes were exposed to WST11 in saline (WST11-S solution) for 10, 20 and 30 min, using an eye cap, and the optical absorption at 755 nm of the washed corneas was determined as described in Materials and Methods. One eye served as untreated control.

[5] = 20 min pretreatment, saline or 20% dextran T-500 formulation, 30 min NIR
[6] = 30 days, 30 min incubation, 30 min NIR, vs untreated fellow eyes, dipotassium salt
[7] = 30 days, 30 min incubation, 30 min NIR, vs untreated fellow eyes, listed as WST11-S, dipotassium salt
[8] = one month, 10 min incubation, 30 min NIR
[9] = one month, 20 min incubation, 30 min NIR
[10] = in vivo after photosensitizer + illumination
[11] = in vivo after photosensitizer + illumination, listed as WST11-S

- corneal edema after treatment, duration (rabbit cornea [2]; in vivo, saline solution/NIR): one week
Compound: CCC1C2=Cc3c(C)c(C(=O)NCCS(=O)(=O)[O-])c4[n]3[Pd][n]3c(c(C)c(C(C)=O)c3=CC(=N2)C1C)=CC1=NC(=C4CC(=O)OC)C(CCC(=O)[O-])C1C.[K+].[K+] (stereo not drawn) [WST11, Palladium 3^1-oxo-15-methoxycarbonylmethyl-rhodobacteriochlorin 13^1-(2-sulfoethyl)amide dipotassium salt]
- increase in Young's modulus compared with untreated corneas of fellow eyes (rabbit cornea [1]; [5]): approximately two-fold increase
- increase in mean ultimate stress compared with untreated corneas of fellow eyes (rabbit cornea [1]; [5]): approximately two-fold increase
- Mean Young's Modulus Intensity (rabbit cornea [1]; 30 days, 30 min incubation 2.5 mg/ml, 30 min NIR): 32 ± 3.6 MPa
- Mean ultimate stress Intensity (rabbit cornea [1]; 30 days, 30 min incubation 2.5 mg/ml, 30 min NIR 755 nm 10 mW/cm^2): 6.91 ± 0.53 MPa
- Mean Young's Modulus Increase % (rabbit cornea [1]; [6]): 174%
- Mean ultimate stress Increase % (rabbit cornea [1]; [6]): 111%
- Mean Young's Modulus Increase % (rabbit cornea [1]; [7]): 173%
- Mean ultimate stress Increase % (rabbit cornea [1]; [7]): 126%
- Mean Young's Modulus Intensity (rabbit cornea [1]; [8]): 13.9 ± 3.9 MPa
- Mean ultimate stress Increase % (rabbit cornea [1]; [8]): 45%
- Mean ultimate stress Intensity (rabbit cornea [1]; [8]): 4.51 ± 1.85 MPa
- Mean Young's Modulus Increase % (rabbit cornea [1]; one month, 10 min incubation, 30 min NIR, dipotassium salt): 9%
- Mean Young's Modulus Increase % (rabbit cornea [1]; one month, 10 min incubation, 30 min NIR, listed as WST11-S, dipotassium salt): 10%
- Mean Young's Modulus Increase % (rabbit cornea [1]; [9]): 79%
- Mean Young's Modulus Intensity (rabbit cornea [1]; [9]): 22.7 ± 3.82 MPa
- Mean ultimate stress Increase % (rabbit cornea [1]; [9]): 113%
- Mean ultimate stress Intensity (rabbit cornea [1]; [9]): 6.66 ± 0.67 MPa
- time to clearing of corneal edema (rabbit cornea [2]; [10]): 5 days
- epithelial haze (rabbit cornea [2]; [10]): without haze development
- time to healing of corneal epithelial defect (rabbit cornea [2]; [10]): 7 to 9 days
- epithelial haze (rabbit cornea [2]; [11]): some corneas demonstrating epithelial haze
- time to healing of corneal epithelial defect (rabbit cornea [2]; [11]): 10 to 14 days
- 755-nm absorption of corneal WST11 diminished by ([3]; NIR illumination 10 min): 30%
- 755-nm absorption of corneal WST11 diminished by ([3]; NIR illumination 30 min): 50%
- 755-nm absorption of corneal WST11 diminished by ([3]; NIR illumination 60 min): 75%
- optical density of the impregnated corneas at 755 nm [4]: ≤ 1.71 OD units

Reference: patent US11058772B2, “(Bacterio)chlorophyll photosensitizers for treatment of eye diseases and disorders” (Yeda Research and Development Co. Ltd., priority 2011, dated 2021)
